Reference: US6617342B1, “Hypoglycemic sulfonyl pyrazolones and pyrazolines” (Eli Lilly and Company, priority 1999, dated 2003)

Tested on: obese-diabetic viable yellow (AvY) mice
Assay: Demonstration of hypoglycemic efficacy: blood glucose after 14 days of compound admixed in diet
Format: in vivo
Details: blood glucose at day 14 as percent of initial (day 0) value, male AvY mice
Method: Male obese-diabetic viable yellow (AvY) mice were divided into two groups of 6 each. One group was fed repelletized purina 5008 Chow and the second group was fed repelletized Purina 5008 Chow, admixed with varying doses of the candidate compound. Blood samples were taken before the experiment was initiated and 7 and 14 days after initiation. Body weight and food consumption were monitored. The blood glucose level after 7 or 14 days of treatment was measured and recorded as a percent of the initial value, compared to the untreated control (first) group. The results are presented in the table 1 below; and include the dose of the candidate compound as a weight percent of the amount incorporated into the diet. Also in the table is a representative value for a positive control (a known hypoglycemic agent as disclosed by T. Sohda, K. Mizuno, Y. Momose, H. Ikeda, T. Fujita, and K. Meguro, J. Med. Chem., 1992, 35, 2617) administered in the same way as a candidate compound of the present invention.
BG means blood glucose level; BG0 means blood glucose level at day zero and BG14 means blood glucose level at day 14 accordingly. Takeda “Compound 17” is disclosed by T. Sohda, K. Mizuno, Y. Momose, H. Ikeda, T. Fujita, and K. Meguro, J. Med. Chem., 1992, 35, 2617.

[1] = dose .03 weight percent in diet (Purina 5008 Chow)

Molecule: 3-(4-(2-Phenyl-4-oxazolyl)ethoxy)phenyl-4-methylsulfonyl-1H-1,2-pyrazoline [Example 3]
- % BG14 (BGO = 100) (dose .01 weight percent in diet (Purina 5008 Chow)): 72%

Molecule: O=c1[nH][nH]cc1S(=O)(=O)c1ccc(OCCc2coc(-c3ccccc3)n2)cc1 [Example 1, 4-(4-[2-(2-Phenyl-4-oxazolyl)ethoxy]phenylsulfonyl)-1H,2H-prazolin-3-one]
- % BG14 (BGO = 100) [1]: 32%

Molecule: O=c1[nH][nH]cc1S(=O)(=O)Cc1ccc(OCCc2coc(-c3ccccc3)n2)cc1 [Example 2, 4-(4-[2-(2-Phenyl-4-oxazolyl)ethoxy]phenylmethylsulfonyl)-1H,2H-prazolin-3-one]
- % BG14 (BGO = 100) [1]: 81%

Molecule: O=c1ccn(S(=O)(=O)c2ccc3ccccc3c2)[nH]1 [Example 4, 2-Naphthylsulfonyl-pyrazolin-3-one]
- % BG14 (BGO = 100) (dose .1 weight percent in diet (Purina 5008 Chow)): 94%
